In US5248680A, “Zwitterionic compounds and their n-halo derivatives for use in the treatment of clinical conditions” (Bloomfield D.A., priority 1990, dated 1993):
Like-named read-outs stand apart in the source and are kept apart here.

How the values were obtained:
[1] = system: peripheral blood neutrophils; experiment: Chemiluminescence (reactive oxidant production) of peripheral blood neutrophils stimulated with calcium ionophore; assay type: cell-based; settings: Homo sapiens, Neutrophil, mean ± S.E.M.; for activity at 10000 µM: 10 mM zwitterionic compound, normal neutrophils, read-out: Chemiluminescence activity of normal neutrophils; for activity at 40000 µM: 40 mM taurine, read-out: Chemiluminesence production by neutrophils
Excerpt: Patients were selected with mild to moderate plaque-type psoriasis on the basis of clinical and histological evidence of disease. Normal volunteers were selected from laboratory personnel without personal or family history of inflammatory disease. Disease control groups included: a) patients with eczema, acne and dermatitis herpetiformis; and b) patients with Crohn's disease and ulcerative colitis. Blood samples from each subject were drawn into sodium heparin Vacutainers® (Vacutainer is a Trade Mark). The inflammatory cells (neutrophils) were isolated by dextran sedimentation and FICOLL-PAQUE®(FICOLL-PLAQUE is a Trade Mark) gradient centrifugation. Viability and purity were assessed by fluorescence microscopy, using ethidium bromide and acridine orange staining. […] Chemiluminescence activity of the peripheral blood neutrophils was tested using the method of Bloomfield, F. J. and Young, M. M. (Inflammation, (1982) 6, 257, hereby incorporated by reference), using calcium ionophore (2μ Molar) as stimulant instead of opsonized zymosan. Chemiluminescence is a measure of the production of reactive oxidants by neutrophils in response to an inflammatory stimulus. It was observed that there was significant reduction in chemiluminescence activity by neutrophils in the taurine-treated and HEPES-treated cells compared to control cells in all groups.

[2] = system: myeloperoxidase; experiment: Myeloperoxidase activity of neutrophils after preincubation with zwitterion; assay type: cell-based, human; settings: mean ± S.E.M.; for Myeloperoxidase activity of normal neutrophils: 10 mM zwitterionic compound; for Myeloperoxidase activity of neutrophils: 40 mM taurine
Excerpt: (§1) Patients were selected with mild to moderate plaque-type psoriasis on the basis of clinical and histological evidence of disease. Normal volunteers were selected from laboratory personnel without personal or family history of inflammatory disease. Disease control groups included: a) patients with eczema, acne and dermatitis herpetiformis; and b) patients with Crohn's disease and ulcerative colitis.
(§2) Blood samples from each subject were drawn into sodium heparin Vacutainers® (Vacutainer is a Trade Mark). The inflammatory cells (neutrophils) were isolated by dextran sedimentation and FICOLL-PAQUE®(FICOLL-PLAQUE is a Trade Mark) gradient centrifugation. Viability and purity were assessed by fluorescence microscopy, using ethidium bromide and acridine orange staining.

[3] = system: leukotriene B4; experiment: Degradation of standard leukotriene B4 measured by radioimmunoassay; assay type: biochemical; settings: data not shown
Excerpt: (§3) It was therefore proposed to test the hypothesis that HEPES could inactivate leukotriene B4 by indirect stimulation of MPO leading to increased production of hypochlorous acid from cellular hydrogen peroxide.

[4] = system: neutrophils; experiment: Degranulation of lysosomal enzymes by neutrophils stimulated with calcium ionophore; assay type: cell-based, human; settings: result in words; taurine data not shown
Excerpt: as §1, §2
Stimulation of the inflammatory process in neutrophils, not only activates the respiratory burst, but as a consequence, is also associated with release of lysosomal enzymes from the cells in a process called degranulation. Degranulation of lysosomal enzymes was stimulated in neutrophils from each group of subjects, using calcium ionophore as inflammatory stimulant.

[5] = system: catalase; experiment: Catalase activity of neutrophils after preincubation; assay type: cell-based, human; settings: neutrophils preincubated with HEPES or taurine; data not shown
[6] = system: neutrophils; experiment: Hypochlorous acid production by neutrophils; assay type: cell-based; settings: Homo sapiens, Neutrophil, 40 mM taurine, mean ± S.E.M.
Excerpt: as §1, §2

[7] = system: neutrophils; experiment: Leukotriene B4 in supernatants of stimulated neutrophils; assay type: cell-based, human; settings: Homo sapiens, Neutrophil, 40 mM taurine, mean ± S.E.M., read-out: Leukotriene B4 production by neutrophils
Excerpt: as §1, §2, §3
For the methodology used in the in vitro studies hereinafter described reference should be made to McLoughlin, D. M. et al. Biochem. Soc. Trans. (1991) 19:73-78 hereby incorporated by reference, except where otherwise stated.

[8] = system: monocytes; experiment: Leukotriene B4 in stimulated monocytes; assay type: cell-based, human; settings: preincubation with 10 mM HEPES or 40 mM taurine; data not shown
Excerpt: as §3

[9] = system: carrageenan induced paw oedema; experiment: Carrageenan-induced paw oedema in rats; assay type: in vivo, rat; settings: for percentage increase in paw volume: 1 h after carrageenan, mean ± S.E.M.; for reduction in paw oedema: versus control
Experimental: The studies were conducted on inbred Wistar strain albino rats (120-180 g) of either sex. The rats were housed in colony cages at an ambient temperature of 25°±2° C. and fed on standard pellet chow. The rats were anaesthetized using pentobarbitone sodium, their hind paws were marked and the volume measured. […] The control animals were injected with 10 μl of 0.9% saline solution. […] One hour following the carrageenan injection the hind paw volume was measured again. A 5 ml blood sample was taken from each animal into sodium heparin Vacutainers. Chemiluminescence activity was assayed in the PBMC isolated from each animal.
These studies were also conducted on inbred Wistar strain albino rats (120-180 g) of either sex. The rats were anaesthetized using pentobarbitone sodium prior to marking each hind paw and measuring paw volume. […] The control animals received 0.5 ml of 0.9% NaCl subcutaneously. 30 min after the injections were administered, paw oedema was induced using carrageenan. One hour following carrageenan administration the hind paw volume was measured. A 5 ml blood sample was taken from each animal into sodium heparin Vacutainers and used for chemiluminescence measurement.

[10] = system: myeloperoxidase; experiment: Binding of zwitterion to myeloperoxidase (preliminary studies)

`O=S(=O)(O)CCCNC1CCCCC1` [CAPS, 3-(cyclohexylamino)propanesulphonic acid] was tested, and the activity at 10000 µM [1] was 87.9 ± 8.87%, the “Myeloperoxidase activity of normal neutrophils” value [2] was “little effect” and the “Myeloperoxidase activity of normal neutrophils” value ([2]; 10000 µM) was 115 ± 3.6 percentage activity of control.
`O=S(=O)(O)CCNCl` [taurine chloramine] was tested, and the “degradation of standard leukotriene B4” value [3] was “cause degradation of standard leukotriene B4”.
In the case of `O=S(=O)(O)CCNC(CO)(CO)CO` [TES, N-N[tris(hydroxymethyl)-methyl]-2-aminoethanesulphonic acid], the activity at 10000 µM [1] is reported as 15.6 ± 2.41%, the “Myeloperoxidase activity of normal neutrophils” value [2] is reported as “lesser effect on MPO stimulation” and the “Myeloperoxidase activity of normal neutrophils” value ([2]; 10000 µM) is reported as 129 ± 20.1 percentage activity of control.
For `O=S(=O)(O)CCN(CCO)CCO` [BES, N,N-bis(2-hydroxyethyl)-2-aminoethanesulphonic acid], the activity at 10000 µM [1] was 4.95 ± 0.93%, the “Myeloperoxidase activity of normal neutrophils” value [2] was “lesser effect on MPO stimulation” and the “Myeloperoxidase activity of normal neutrophils” value ([2]; 10000 µM) was 138 ± 14.1 percentage activity of control.
In the case of `NCCS(=O)(=O)O` [taurine, 2-aminoethanesulphonic acid], the activity at 40000 µM ([1]; Normal) is reported as 12.7 ± 1.77%, the activity at 40000 µM ([1]; Psoriasis) is reported as 15.5 ± 2.1% and the activity at 40000 µM ([1]; disease controls (a)) is reported as 20.3 ± 1.85%. The activity at 40000 µM ([1]; disease controls (b)) was 30.5 ± 8.6%, the “degranulation by preincubated neutrophils compared to control cells” value [4] was “no significant difference in degranulation” and the “Myeloperoxidase activity of neutrophils” value ([2]; Normal) was 564 ± 38.3 percentage activity of control. The “Myeloperoxidase activity of neutrophils” value ([2]; Psoriasis) was 591 ± 61.8 percentage activity of control, the “Myeloperoxidase activity of neutrophils” value ([2]; disease controls (a)) was 473 ± 33.7 percentage activity of control and the “Myeloperoxidase activity of neutrophils” value ([2]; disease controls (b)) was 485 ± 49.2 percentage activity of control. The “effect on catalase activity” value [5] was “no effect on catalase activity”, the activity at 40000 µM ([6]; Normal) was 152 ± 14.1% and the activity at 40000 µM ([6]; Psoriasis) was 167 ± 34.7%. The activity at 40000 µM ([6]; disease controls (a)) was 142 ± 32.1%, the activity at 40000 µM ([7]; Normal) was 64.8 ± 8.3% and the activity at 40000 µM ([7]; Psoriasis) was 66.5 ± 10.9%. The activity at 40000 µM ([7]; disease controls (a)) was 73.3 ± 9.95%, the activity at 40000 µM ([7]; disease controls (b)) was 78 ± 8.6% and the “reduction of leukotriene B4 in monocytes” value [8] was “also demonstrated in monocytes”. For the same compound, the “percentage increase in paw volume” value ([9]; I.C.V. 50 μg taurine) was 30 ± 4 percentage increase in paw volume, the “percentage increase in paw volume” value ([9]; I.C.V. 500 μg taurine) was 21 ± 8 percentage increase in paw volume and the “percentage increase in paw volume” value ([9]; S.C. 500 μg taurine) was 27 ± 2 percentage increase in paw volume. For the same compound, the “reduction in paw oedema” value ([9]; i.c.v. 50 μg taurine) was 21%, the “reduction in paw oedema” value ([9]; i.c.v. 500 μg taurine) was 54% and the “reduction in paw oedema” value ([9]; s.c. 500 μg taurine) was 18%. The “binding to the enzyme (MPO)” value [10] was “did not bind to the enzyme”.
For `O=S(=O)(O)CCN1CCOCC1` [MES, 2(N-morpholino)ethanesulphonic acid], the activity at 10000 µM [1] was 3.15 ± 0.67%, the “Myeloperoxidase activity of normal neutrophils” value [2] was “marked effect on MPO activity” and the “Myeloperoxidase activity of normal neutrophils” value ([2]; 10000 µM) was 264 ± 15.9 percentage activity of control.
`OCl` [hypochlorous acid, reference compound] was tested, and the “degradation of standard leukotriene B4” value [3] was “cause degradation of standard leukotriene B4”.
With `NC(=O)CNCCS(=O)(=O)O` [ACES, N-(2-acetamido)-2-aminoethanesulphonic acid] the activity at 10000 µM [1] was 12.9 ± 2.75%, the “Myeloperoxidase activity of normal neutrophils” value [2] was “marked effect on MPO activity” and the “Myeloperoxidase activity of normal neutrophils” value ([2]; listed as ACE, 10000 µM) was 166 ± 18.2 percentage activity of control.
`O=S(=O)(O)CCNC1CCCCC1` [CHES, 2-(cyclohexylamino)ethanesulphonic acid] was tested, and the activity at 10000 µM [1] was 68.4 ± 6.36%, the “Myeloperoxidase activity of normal neutrophils” value [2] was “little effect” and the “Myeloperoxidase activity of normal neutrophils” value ([2]; 10000 µM) was 120 ± 4.8 percentage activity of control.
For `NC(=O)CN(CC(=O)O)CC(=O)O` [ADA, N-(2-acetamido)iminodiacetic acid], the activity at 10000 µM [1] was 1.45 ± 0.27% and the “Myeloperoxidase activity of normal neutrophils” value [2] was 214 ± 32.3 percentage activity of control.
In the case of `O=S(=O)(O)CCCN1CCN(CCO)CC1` [(H)EPPS, N-2-hydroxyethylpiperazine-N'3-propanesulphonic acid], the activity at 10000 µM [1] is reported as 50.9 ± 7.38%, the “Myeloperoxidase activity of normal neutrophils” value [2] is reported as “marked effect on MPO activity” and the “Myeloperoxidase activity of normal neutrophils” value ([2]; 10000 µM) is reported as 348 ± 15.1 percentage activity of control.
In the case of `O=S(=O)(O)CCCN1CCOCC1` [MOPS, 3-(N-morpholino)propanesulphonic], the activity at 10000 µM [1] is reported as 7.27 ± 1.53%, the “Myeloperoxidase activity of normal neutrophils” value [2] is reported as “lesser effect on MPO stimulation” and the “Myeloperoxidase activity of normal neutrophils” value ([2]; 10000 µM) is reported as 134 ± 13.4 percentage activity of control.
`O=S(=O)(O)CCN1CCN(CCS(=O)(=O)O)CC1` [PIPES, piperazine-N,N'bis(2-ethanesulphonic acid] was tested, and the activity at 10000 µM [1] was 4.08 ± 0.97%, the “Myeloperoxidase activity of normal neutrophils” value [2] was “marked effect on MPO activity” and the “Myeloperoxidase activity of normal neutrophils” value ([2]; 10000 µM) was 199 ± 23.1 percentage activity of control.
